These results are taken from patent US10624875B2, “Methods and compositions for treating schizophrenia” (The Johns Hopkins University, priority 2012, dated 2020).

The subject of experiment [1] is Age-Impaired (AI) Long-Evans rats. The experiment can be described thus: Morris Water Maze (MWM) retention trial, spatial memory. The experiment is classed as in vivo, rat. Particulars: retention trial 24 hours after two training days. As to the method:
The MWM apparatus consists of a large, circular pool (diameter 1.83 m; height, 0.58 m) filled with water (27° C.) that is made opaque through the addition of non-toxic pigment or some other substance. In the typical “hidden platform” version of the test, rats are trained to find a camouflaged white escape platform (height, 34.5 cm) that is positioned in the center of one quadrant of the maze about 1.0 cm below the water surface. This platform can be retracted to the bottom of the tank or raised to its normal position from outside the maze during behavioral testing. The location of the platform remains constant from trial to trial. Because there are no local cues that mark the position of the platform, the rat's ability to locate it efficiently from any starting position at the perimeter of the pool depends on using information surrounding the maze. The maze is surrounded by black curtains to which white patterns are affixed to provide a configuration of spatial cues. A second platform (height 37.5 cm), with its surface painted black is elevated 2 cm above the water surface during cue training to control for factors unrelated to cognition. The behavior of a rat in the pool is recorded by a camera that is suspended 2.5 m above the center of the pool. […] At the completion of the protocol using the hidden platform, rats are assessed for cue learning using the visible platform. […]

The test system of the next experiment is aged-impaired (AI) rats. The experiment can be described thus: eight-arm Radial Arm Maze (RAM) task with one-hour delay, spatial memory retention. The format is in vivo, rat. How it is done:
The effects of levetiracetam on the spatial memory retention of aged-impaired (AI) rats were assessed in a Radial Arm Maze (RAM) behavioral task using vehicle control and five different dosage levels of levetiracetam (1.25 mg/kg/day, 2.5 mg/kg/day, 5 mg/kg/day, 10 mg/kg/day and 20 mg/kg/day). RAM behavioral tasks were preformed on ten AI rats. All six treatment conditions were tested on all ten rats, as described above for the MWM test. The RAM apparatus used consisted of eight equidistantly-spaced arms. An elevated maze arm (7 cm width×75 cm length) projected from each facet of an octagonal center platform (30 cm diameter, 51.5 cm height). Clear side walls on the arms were 10 cm high and were angled at 65° to form a trough. A food well (4 cm diameter, 2 cm deep) was located at the distal end of each arm. Froot Loops™ (Kellogg Company) were used as rewards. Blocks constructed of Plexiglas™ (30 cm height×12 cm width) could be positioned to prevent entry to any arm. Numerous extra maze cues surrounding the apparatus were also provided. The AI rats were initially subjected to a pre-training test (Chappell et al. Neuropharmacology 37: 481-487, 1998). The pre-training test consisted of a habituation phase (4 days), a training phase on the standard win-shift task (18 days) and another training phase (14 days) in which a brief delay was imposed between presentation of a subset of arms designated by the experimenter (e.g., 5 arms available and 3 arms blocked) and completion of the eight-arm win-shift task (i.e., with all eight arms available). In the habituation phase, rats were familiarized to the maze for an 8-minute session on four consecutive days. In each of these sessions food rewards were scattered on the RAM, initially on the center platform and arms and then progressively confined to the arms. After this habituation phase, a standard training protocol was used, in which a food pellet was located at the end of each arm. Rats received one trial each day for 18 days. Each daily trial terminated when all eight food pellets had been obtained or when either 16 choices were made or 15 minutes had elapsed. After completion of this training phase, a second training phase was carried out in which the memory demand was increased by imposing a brief delay during the trial. At the beginning of each trial, three arms of the eight-arm maze were blocked. Rats were allowed to obtain food on the five arms to which access was permitted during this initial ‘information phase’ of the trial. Rats were then removed from the maze for 60 seconds, during which time the barriers on the maze were removed, thus allowing access to all eight arms. Rats were then placed back onto the center platform and allowed to obtain the remaining food rewards during this ‘retention test’ phase of the trial. The identity and configuration of the blocked arms varied across trials. The number of “errors” the AI rats made during the retention test phase was tracked. An error occurred in the trial if the rats entered an arm from which food had already been retrieved in the pre-delay component of the trial, or if it re-visited an arm in the post-delay session that had already been visited. After completion of the pre-training test, rats were subjected to trials with more extended delay intervals, i.e., a one-hour delay, between the information phase (presentation with some blocked arms) and the retention test (presentation of all arms). […]

Setting [2] is: drug on its own (levetiracetam i.p., valproate subcutaneous).

Where “and” joins values, the source holds several entries; their conditions need not be identical. Equal values may be shown once.

Take `CC[C@@H](C(N)=O)N1CCCC1=O` [levetiracetam, (2S)-2-(2-oxopyrrolidin-1-yl) butanamide]: in experiment [1] (5 mg/kg/day i.p.), the “time spent in the target quadrant versus vehicle-treated controls” value is given as “did not significantly improve”. Further, the “time spent in the target annulus” value in experiment [1] (10 mg/kg/day i.p.) is listed as “effectiveness of the 10 mg/kg/day levetiracetam treatment was also seen”. Further, the “performance in the radial maze task” value in the experiment with aged-impaired (AI) rats (20 mg/kg) is listed as “fails to improve the performance”. Moreover, in the experiment with aged-impaired (AI) rats (setting [2]), the “dose effective in reducing the number of errors” value was 5 to 10 mg/kg; the “dose not effective in reducing the number of errors” value was 1.25 mg/kg and 2.5 mg/kg.
